{"source": "patent US9951066B2", "about": "“Compositions, uses and methods for making them” (Pimera, Inc., priority 2014, dated 2018)", "format_in_all_cases": "cell-based", "key": {"[1]": {"test_system": "A375 cell line", "assay": "Alamar Blue cell viability assay, A375", "details": "Homo sapiens, A-375, cell proliferation inhibition, Alamar Blue, 96 h incubation", "method": "(§1) Inhibitory activity on cell proliferation of representative compounds of the invention was determined using an Alamar Blue cell viability assay as described hereafter.\n(§2) 3000 cancer cells in 100 uL of cell culture media were plated in each well of a 96-well clear bottom, black wall cell culture-pretreated plate.\n(§3) The next day compounds are serially diluted (3-fold in cell culture media) across a 96-well polypropylene mother plate from row A to row F, to yield 6 concentrations (10 uM, 3.3 uM, 1.1 uM, 370 nM, 124 nM and 41 nM) for each test compound. Rows G and H contain only DMSO.\n(§4) Once titrations are made, the media in plates with cells were disposed and 100 μL of drug dilutions are transferred to plates with cells. After a ninety six-hour incubation at 37° C., 10 uL of resazurin solution from Alamar Blue Cell Viability kit (Invitrogen, Carlsbad, Calif.) was added to the media and cells were incubated at 37° C. for three more hours. At the end of this incubation the production of resofurin was measured using Spectrmax M2 microplate reader (Molecular Devices, Sunnyvale, Calif.)"}, "[2]": {"test_system": "Hep G2", "assay": "Alamar Blue cell viability assay, Hep G2", "details": "Homo sapiens, HepG2, 96 h incubation, read-out: cell proliferation inhibition Hep G2", "method": "as §1, §2, §3, §4"}, "[3]": {"test_system": "SKM-1", "assay": "Alamar Blue cell viability assay, SKM-1", "details": "Homo sapiens, 96 h incubation, read-out: cell proliferation inhibition SKM-1", "method": "as §1, §2, §3, §4"}, "[4]": {"details": "Table 4, read-out: Pharmaceutical activity in A375 cell line IC50"}, "[5]": {"details": "read-out: Pharmaceutical activity IC50 A375"}}, "note": "Read-outs that look alike come from different tables or passages of the source.", "data": [{"smiles": "Cc1nnc(-c2cc3ccc(N4CCCN(C)CC4)nc3n3c2nc2ccccc23)o1", "note": "[Compound 10E, 2-(4-Methyl-[1,4]diazepan-1-yl)-6-(5-methyl-[1,3,4]oxadiazol-2-yl)-1,7,11b-triaza-benzo[c]fluorine]", "values": [{"measurement": "IC50", "setting": "[1]; [4]", "result": "< 1", "unit": "µM"}]}, {"smiles": "CN(C)CCNc1ccc2cc(C(=O)NN)c3nc4ccccc4n3c2n1", "note": "[Compound 12B, 2-(2-Dimethylamino-ethylamino)-1,7,11b-triaza-benzo[c]fluorene-6-carboxylic acid hydrazide]", "values": [{"measurement": "IC50", "setting": "[1]; [4]", "result": "1 to 5", "unit": "µM"}]}, {"smiles": "CNC(=O)c1cc2ccc(NCCN(C)C)nc2n2c1nc1ccccc12", "note": "[Compound 12C, 2-(2-Dimethylamino-ethylamino)-1,7,11b-triaza-benzo[c]fluorene-6-carboxylic acid methylamide]", "values": [{"measurement": "IC50", "setting": "[1]; [4]", "result": "< 1", "unit": "µM"}]}, {"smiles": "CNC(=O)c1cc2c(N3C[C@@H](C)N[C@@H](C)C3)ccnc2n2c1nc1ccccc12", "note": "[Compound 8D]", "values": [{"measurement": "IC50", "setting": "[1]; [4]", "result": "< 1", "unit": "µM"}]}, {"smiles": "CCN1CCN(c2ccc3cc(C#N)c4nc5ccccc5n4c3n2)CC1", "note": "[Compound 3B, 2-(4-ethylpiperazin-1-yl)-1,7,11b-triaza-benzo[c]fluorene-6-carbonitrile]", "values": [{"measurement": "IC50", "setting": "[2]", "result": "< 1", "unit": "µM"}, {"measurement": "IC50", "setting": "[3]", "result": "< 1", "unit": "µM"}, {"measurement": "IC50", "setting": "[1]; [5]", "result": "< 1", "unit": "µM"}]}, {"smiles": "CN1CCN(c2ccc3cc(C#N)c4nc5ccccc5n4c3n2)CC1", "note": "[Compound 3H, 2-(4-Methyl-piperazin-1-yl)-1,7,11b-triaza-benzo[c]fluorene-6-carbonitrile]", "values": [{"measurement": "IC50", "setting": "[1]; [4]", "result": "< 1", "unit": "µM"}]}, {"smiles": "CN1CCCN(c2ccc3cc(C(=O)NC4CC4)c4nc5ccccc5n4c3n2)CC1", "note": "[Compound 2C, 2-(4-methyl-[1,4]diazepan-1-yl)-1,7,11b-triazabenzo[c]fluorene-6-carboxylic acid cyclopropylamide]", "values": [{"measurement": "IC50", "setting": "[1]; [5]", "result": "1 to 5", "unit": "µM"}]}]}
